# Measured values: article PMC9144807, “Fluorine-18 Labeled Urea-Based Ligands Targeting Prostate-Specific Membrane Antigen (PSMA) with Increased Tumor and Decreased Renal Uptake” (Pharmaceuticals, 2022)
# Several values for one entry are separate records, joined by “and”; a condition that tells them apart may be missing. Identical values can stand only once. Like-named read-outs stand apart in the source and are kept apart here.
# Experiments:
# PC3(−) xenografts = assay: In vivo biodistribution in PC3(−) xenograft mice (negative control); details: 60 min; mean ± SE, n = 8–10
# Description: (§1) PC3(−) (wildtype human prostate cancer cell line, PSMA negative) and PC3(+) (transfected with human PSMA) were provided by Dr. Hisataka Kobayashi. Cell lines were grown at 37 °C in 5% CO2 in RPMI-1640 supplemented with 10% FBS, 2 mM L-glutamine and Pen/Strep/Amphotericin B. PC3(+) and PC3(−) cell suspensions [2 × 10^6 cells; PBS:Matrigel (70:30)] from in vitro cell culture were subcutaneously implanted (right shoulder) into athymic mice (Athymic NCr- nu/nu, Charles River Laboratory, 4 weeks old) for use as positive and negative controls, respectively, for in vitro or in vivo studies. When tumors reached the appropriate size (>100 mg) the xenograft mice were used for in vivo biodistributions and imaging studies or the tumors were excised and further processed to obtain membrane preparations for in vitro assays as described previously.
# (§2) Tumor-bearing mice (tumor weights: 0.1–0.8 g) were injected while awake via the tail vein with each of the tracers [0.74–3.7 MBq (20 to 100 µCi), 10 to 80 pmol] and euthanized (via CO2 inhalation) at selected times. […] Blood samples and tissues were excised from each animal, weighed, and radioactivity content was determined (Perkin Elmer 2480 Wizard3). Radioactivity content in the blood and each tissue was expressed as % injected dose per gram of tissue [%ID/g; (Formula (1))] and then normalized for body weight to a 20 g mouse (Formula (2)) from which Tissue:Muscle ratios [T:M; (Formula (3))] were determined as follows:(1) %ID/g =[counts per minute cpmtissue / tissue weight g]×100/cpmtotal injected dose
# (§3) %ID/g (normalized to a 20 g mouse) = (%ID/g) × (body weight/20 g)(2)
# (§4) (3) T:M=%ID/gtissue/%ID/gmuscle
# PSMA [1] = target: T1, PSMA (Homo sapiens, UniProt Q04609); assay: In vitro saturation binding assay with PC3(+) tumor membrane preparations; details: saturation assays, mean (SE), n = 3–5
# T1 construct: expressed in transfected cells; host or cells: PC3(+) (PC3 human prostate cancer cells transfected with human PSMA), grown as xenograft tumors in athymic mice; tumor membrane preparations
# Description: as §1
# In vitro saturation studies were performed to determine binding affinities (Kd) and PSMA expression levels (Bmax) using tumor membrane preparations from PC3(−) and PC3(+) PSMA xenografts (human prostate cancer cell line transfected with human PSMA; PC3(+)). […] Filter papers were collected, and the radioactive content was quantified by gamma counting (PerkinElmer 2480 Wizard3). […] Aliquots of each membrane preparation were taken for the determination of the protein concentration (Bradford method).
# PC3(+) xenografts [2] = assay: In vivo biodistribution in PC3(+) xenograft mice; design: key to salivary gland T:M / Femur T:M / Blood T:M / Kidney T:M / Liver T:M: T:M = (%ID/g in tissue) / (%ID/g in muscle)
# Description: as §1, §2, §3, §4
# [3] = Fraction of intact tracer (parent) in blood and kidney by TLC; assay type: in vivo, mice; details: for %Parent compound in blood (TLC analysis): 60 min; for tissue uptake at 0.25 h: 15 min post-injection; for tissue uptake at 0.5 h: 30 min post-injection; for tissue uptake at 2 h: 120 min post-injection
# Excerpt: In some cases, additional blood samples and/or tissue samples after gamma counting were taken for determining the fraction of intact radiolabeled tracer (parent) using thin-layer chromatography (TLC). For these TLC determinations: tissues were placed in equal volumes of acetonitrile and homogenized, or serum was obtained from the blood samples and mixed with an equal volume of acetonitrile. Following centrifugation of the samples, supernatants were collected and the radioactive content of the supernatants and pellets were determined. The supernatants were then applied to thin-layer chromatography (TLC) plates. The TLC plates were developed [solvent system: ethyl acetate (80%), methanol (10%) and acetic acid (10%)], and exposed on a phosphorimaging plate which was scanned the next day.
# PSMA [4] = target: T1, PSMA; assay: In vitro competition binding assay with [18F]DCFPyL as radioligand, PC3(+) tumor membrane preparations
# PC3(+) xenografts [5] = assay: Blocking biodistribution study in PC3(+) xenografts, coinjection of non-radioactive DCFPyL; assay type: in vivo, mice; details: 60 min, coinjection of DCFPyL 1000×
# Description: as §2, §3, §4
# [6] = system: PC3(+) tumor xenograft mice; assay: Small animal PET imaging with ROI analysis, PC3(+) tumor xenograft mice; assay type: in vivo; details: 60 min post-injection
# Description: Tumor-bearing mice were anesthetized with isoflurane/O2 (1.5–3% v/v) and imaged at various times after intravenous injection of each tracer [2.6 to 3.7 MBq (70 to 100 µCi)]. Whole body static PET images were obtained at 2 bed positions (FOV = 2.0 cm, total imaging time: 10 min) using a BioPET scanner (Bioscan Inc., Washington, DC, USA). The images were reconstructed by a 3-dimensional ordered-subsets expectation maximum (3D-OSEM).
# [7] = 15 min post-injection, mean ± SE
# [8] = 30 min post-injection, mean ± SE
# [9] = 60 min post-injection, mean ± SE
# [10] = 120 min post-injection, mean ± SE
# [11] = mouse, blood, intravenous, mean ± SE, read-out: Blood uptake, parent (corrected for metabolites)
# [12] = mouse, kidney, intravenous, mean ± SE, read-out: Kidney uptake, parent (corrected for metabolites)
# T1 sequence (Q04609 whole entry): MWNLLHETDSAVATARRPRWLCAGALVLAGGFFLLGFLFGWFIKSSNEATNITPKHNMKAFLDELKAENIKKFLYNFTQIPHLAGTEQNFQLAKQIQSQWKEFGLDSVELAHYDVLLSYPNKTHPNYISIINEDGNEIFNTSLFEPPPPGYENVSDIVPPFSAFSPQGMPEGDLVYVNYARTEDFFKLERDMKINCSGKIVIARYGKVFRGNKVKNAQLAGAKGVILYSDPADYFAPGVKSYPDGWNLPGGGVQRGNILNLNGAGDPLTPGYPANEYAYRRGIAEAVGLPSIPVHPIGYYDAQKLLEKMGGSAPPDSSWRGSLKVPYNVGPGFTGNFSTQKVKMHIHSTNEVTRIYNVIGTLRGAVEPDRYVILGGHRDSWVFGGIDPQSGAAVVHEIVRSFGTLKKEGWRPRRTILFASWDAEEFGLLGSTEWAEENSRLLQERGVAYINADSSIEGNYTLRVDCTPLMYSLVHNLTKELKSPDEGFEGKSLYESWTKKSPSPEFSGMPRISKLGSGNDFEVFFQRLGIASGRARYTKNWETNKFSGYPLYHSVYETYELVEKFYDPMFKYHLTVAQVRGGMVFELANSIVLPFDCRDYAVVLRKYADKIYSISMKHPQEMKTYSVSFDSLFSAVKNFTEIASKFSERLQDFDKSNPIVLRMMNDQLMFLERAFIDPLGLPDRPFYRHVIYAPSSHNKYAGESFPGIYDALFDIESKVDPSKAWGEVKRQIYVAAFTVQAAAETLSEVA
structure (smiles),measurement,setting,value
O=C(O)CC[C@H](NC(=O)N[C@@H](CCCCNC(=O)CO/N=C\c1ccc([18F])nc1)C(=O)O)C(=O)O [[^18F]1b],PC3(−) Tumor T:M,PC3(−) xenografts,1.43 ± 0.29
same,Kd,PSMA [1],0.458 nM
same,decrease of blood radioactivity compared to [18F]DCFPyL,PC3(+) xenografts [2]; 60 min,40%
same,increase of PC3(+) tumor T:M compared to [18F]DCFPyL,PC3(+) xenografts [2]; 60 min,1.6 fold
same,increase of kidney T:M compared to [18F]DCFPyL,PC3(+) xenografts [2]; 60 min,1.4 fold
same,Radioactivity in the blood,PC3(+) xenografts [2]; 60 min (Figure 5A),0.309 %ID/g
same,Blood T:M,"PC3(+) xenografts [2]; 60 min, mean ± SE, n = 8–10",2.26 ± 0.22
same,Femur T:M,"PC3(+) xenografts [2]; 60 min, mean ± SE, n = 8–10",1.80 ± 0.17
same,Kidney T:M,"PC3(+) xenografts [2]; 60 min, mean ± SE, n = 8–10",1013 ± 34
same,Liver T:M,"PC3(+) xenografts [2]; 60 min, mean ± SE, n = 8–10",24.9 ± 2.0
same,PC3(+) Tumor T:M,"PC3(+) xenografts [2]; 60 min, mean ± SE, n = 8–10",204 and 203.7 ± 34.5
same,%Parent compound in blood (TLC analysis),"[3]; mean ± SD, n = 2–5",74.4 ± 7.6%
"O=C(O)CC[C@H](NC(=O)N[C@@H](CCCCNC(=O)CCCCCO/N=C\c1ccc(F)cc1)C(=O)O)C(=O)O [2a, (((. S)-5-(6-(Aminooxy)hexanamido)-1-carboxypentyl)carbamoyl)-L-glutamic acid 4-fluorobenzaldehyde oxime]",Ki,PSMA [4],0.621 nM
"O=C(O)CC[C@H](NC(=O)N[C@@H](CCCCNC(=O)CO/N=C\c1ccc(F)nc1)C(=O)O)C(=O)O [1b, (((S)-5-(2-(aminooxy)acetamido)-1-carboxypentyl)carbamoyl)-L-glutamic acid 6-fluoronicotinaldehyde oxime]",Ki,PSMA [4],0.312 nM
O=C(O)CC[C@H](NC(=O)N[C@@H](CCCCNC(=O)CCCCCO/N=C\c1ccc([18F])cc1)C(=O)O)C(=O)O [[^18F]2a],PC3(−) Tumor T:M,PC3(−) xenografts,1.42 ± 0.13
same,decrease of PC3(+) tumor T:M in blocked group compared to non-blocked group,PC3(+) xenografts [5],48%
same,PC3(+) tumor uptake from ROI analysis of PET images,[6],14 %ID/g
same,increase of liver uptake compared to [18F]DCFPyL (PET ROI),[6],~ 10 fold
same,kidney uptake from ROI analysis of PET images,[6],98 %ID/g
same,liver uptake from ROI analysis of PET images,[6],29 %ID/g
same,reduction of kidney uptake compared to [18F]DCFPyL (PET ROI),[6],~ 50%
same,Kd,PSMA [1],0.362 nM
same,"Blood uptake, total radioactivity",PC3(+) xenografts [2]; [7],4.83 ± 0.57 %ID/g
same,"Kidney uptake, total radioactivity",PC3(+) xenografts [2]; [7],62.2 ± 3.4 %ID/g
same,"Blood uptake, total radioactivity",PC3(+) xenografts [2]; [8],2.47 ± 0.18 %ID/g
same,"Kidney uptake, total radioactivity",PC3(+) xenografts [2]; [8],78.4 ± 9.1 %ID/g
same,decrease of PC3(+) tumor T:M compared to [18F]DCFPyL,PC3(+) xenografts [2]; 60 min,40%
same,increase of blood radioactivity vs. [18F]DCFPyL,PC3(+) xenografts [2]; 60 min,1.6 fold
same,increase of liver T:M compared to [18F]DCFPyL,PC3(+) xenografts [2]; 60 min,6.8 fold
same,decrease of kidney T:M compared to [18F]DCFPyL,"PC3(+) xenografts [2]; 60 min, p < 0.0001",55%
same,Blood T:M,"PC3(+) xenografts [2]; 60 min, mean ± SE, n = 8–10",2.85 ± 0.15
same,Femur T:M,"PC3(+) xenografts [2]; 60 min, mean ± SE, n = 8–10",0.73 ± 0.04
same,Kidney T:M,"PC3(+) xenografts [2]; 60 min, mean ± SE, n = 8–10",314.8 ± 8.3
same,Liver T:M,"PC3(+) xenografts [2]; 60 min, mean ± SE, n = 8–10",66.9 ± 4.2
same,PC3(+) Tumor T:M,"PC3(+) xenografts [2]; 60 min, mean ± SE, n = 8–10",74 and 73.9 ± 5.8
same,"Blood uptake, total radioactivity",PC3(+) xenografts [2]; [9],0.77 ± 0.10 %ID/g
same,"Kidney uptake, total radioactivity",PC3(+) xenografts [2]; [9],75.8 ± 6.3 %ID/g
same,"Blood uptake, total radioactivity",PC3(+) xenografts [2]; [10],0.37 ± 0.03 %ID/g
same,"Kidney uptake, total radioactivity",PC3(+) xenografts [2]; [10],87.8 ± 5.1 %ID/g
same,Femur uptake,PC3(+) xenografts [2]; all times 15 to 120 min,< 1 %ID/g
same,Femur T:M,PC3(+) xenografts [2]; all times except 120 min,< 1.8
same,decrease of tumor T:M compared to [18F]DCFPyL tumor T:M,PC3(+) xenografts [2]; at 30 and 60 min,~ 2 fold
same,increase in tumor T:M from 15 to 120 min,"PC3(+) xenografts [2]; mouse, in vivo",~ 14 fold
same,increase of tumor retention (%ID/g) from 15 to 120 min,"PC3(+) xenografts [2]; mouse, in vivo",1.4 fold
same,%Parent compound in blood (TLC analysis),"[3]; mean ± SD, n = 2–5",84.8 ± 0.6%
same,increase of parent kidney uptake compared to [18F]DCFPyL,[3]; 120 min,4 fold
same,tissue uptake at 0.25 h,[3]; [11],4.1 ± 0.49 %ID/g
same,tissue uptake at 0.5 h,[3]; [11],2.08 ± 0.15 %ID/g
same,tissue uptake at 2 h,[3]; [11],0.31 ± 0.03 %ID/g
same,tissue uptake at 0.25 h,[3]; [12],11.8 ± 0.64 %ID/g
same,tissue uptake at 0.5 h,[3]; [12],22.7 ± 1.73 %ID/g
same,tissue uptake at 1 h,"[3]; mouse, kidney, intravenous, 60 min post-injection, mean ± SE, read-out: Kidney uptake, parent (corrected for metabolites)",15.6 ± 1.19 %ID/g
same,tissue uptake at 2 h,[3]; [12],13 ± 0.98 %ID/g
same,% of parent in blood,"[3]; nude, mouse, in vivo",85-83
same,% of parent in kidney,"[3]; nude, mouse, in vivo",29-15
same,%Parent compound in blood (TLC analysis),"[3]; nude, mouse, in vivo",85%
